Measured values from US5808100A, “Chromene compounds and photochromic materials” (Tokuyama Corporation, priority 1995, dated 1998).

Tests used:
[1] = Photochromic properties of polymer (2 mm thick) containing the chromene compound, xenon lamp irradiation 120 seconds; format: physicochemical; design: key to Color density ε(120)-ε(0): absorbance at λmax after 120 s irradiation minus before, ε(120)-ε(0); details: for Color density ε(120)-ε(0): 120 seconds irradiation, 20° C.±1° C.; for Color density ε(120)-ε(0) / ε(0): absorbancy of the polymer not irradiated (initial color): at λmax; for Color fading rate t1/2: time until absorbancy decreases to one-half of [ε(120)-ε(0)]: after 120 seconds irradiation; for Maximum absorption wavelength λMax (developed color tone): polymer after developing color
Description: (§1) 0.05 Parts of the chromene compound obtained in Example 1 was added to 70 parts of a tetraethylene glycol dimethacrylate, 15 parts of a triethylene glycol dimethacrylate, 10 parts of a glycidyl methacrylate and 5 parts of a 2-hydroethyl methacrylate, and was mixed to a sufficient degree. The mixture solution was poured into a mold constituted by a glass plate and a gasket made from an ethylene/vinyl acetate copolymer and then polymerized. The polymerization was conducted by using an air furnace while gradually raising the temperature up to 30° C. to 90° C. over a period of 18 hours, the temperature being maintained at 90° C. for two hours. After the polymerization, the polymer was taken out from the glass mold.
The obtained polymer (2 mm thick) was irradiated with light from a xenon lamp L-2480 (300 W) SHL-100 manufactured by Hamamatsu Photonics Co. through an Aero Mass filter (manufactured by Corning Co.) for 120 seconds under the conditions of 20° C.±1° C., beam intensities of 365 nm=2.4 mW/cm^2 and […]=24 μW/cm^2 on the polymer surface to develop color and to measure photochromic properties. The photochromic properties were expressed as described below.
Maximum absorption wavelength (λmax): λmax of the polymer after it has developed color was found by using a spectrophotometer (instantaneous multi-channel photodetector MCPD1000) manufactured by Otsuka Denshi Kogyo Co.
ε(120): Absorbancy of the polymer using light of a maximum absorption wavelength after it was irradiated under the above-mentioned conditions for 120 seconds.
ε(0): Absorbancy of the polymer that has not been irradiated using light of a wavelength same as the maximum absorption wavelength of light with which the polymer was irradiated.
ε(120)-ε(0): Color density
(§2) Color fading rate [t1/2 ]: Time required by the polymer irradiated for 120 seconds until the absorbancy decreases down to one-half of [ε(120)-ε(0)]. Durability [T1/2 ]: Time required until the absorbency at the maximum absorption wavelength decreases down to 1/2 of the initial absorbency as measured by using a xenon fadometer FAC-25AX-HC manufactured by Suga Shikenki Co.
(§3) The photochromic polymers were obtained in the same manner as described above but using the compounds obtained in Examples 2 to 33 as chromene compounds. For the purpose of comparison, properties of the compounds represented by the following formulas (A), (B), (D) and (E) were also shown in Table 3. [drawing 110]

[2] = Durability T1/2 by xenon fadometer FAC-25AX-HC; format: physicochemical; details: in polymer
Description: as §1, §2, §3

C1=CC(c2ccccc2)(c2ccccc2)Oc2ccc3ccccc3c21 [A, reference compound]
Color density ε(120)-ε(0) [1]: 0.52
Color fading rate t1/2: time until absorbancy decreases to one-half of [ε(120)-ε(0)] [1]: 0.667 min
ε(0): absorbancy of the polymer not irradiated (initial color) [1]: 0.04
Maximum absorption wavelength λMax (developed color tone) [1]: 436 nm
Durability T1/2: time until absorbancy at maximum absorption wavelength decreases to 1/2 of the initial [2]: 460 h

COc1ccc2c3c(ccc2c1)OC(c1ccccc1)(c1ccccc1)C=C3 [B, reference compound]
Color density ε(120)-ε(0) [1]: 0.74
Color fading rate t1/2: time until absorbancy decreases to one-half of [ε(120)-ε(0)] [1]: 1.5 min
ε(0): absorbancy of the polymer not irradiated (initial color) [1]: 0.04
Maximum absorption wavelength λMax (developed color tone) [1]: 472 nm
Durability T1/2: time until absorbancy at maximum absorption wavelength decreases to 1/2 of the initial [2]: 240 h

Fc1c(C2(c3cccs3)C=Cc3c(ccc4ccccc34)O2)ccc2ccccc12 (centres unmarked) [Compound 1]
Color density ε(120)-ε(0) [1]: 1.50
Color fading rate t1/2: time until absorbancy decreases to one-half of [ε(120)-ε(0)] [1]: 1.2 min
ε(0): absorbancy of the polymer not irradiated (initial color) [1]: 0.04
Maximum absorption wavelength λMax (developed color tone) [1]: 456 nm
Durability T1/2: time until absorbancy at maximum absorption wavelength decreases to 1/2 of the initial [2]: 510 h

C1=CC(c2ccco2)(c2cccc3ccccc23)Oc2ccc3ccccc3c21 (centres unmarked) [Compound 3]
Color density ε(120)-ε(0) [1]: 1.49
Color fading rate t1/2: time until absorbancy decreases to one-half of [ε(120)-ε(0)] [1]: 1.38 min
ε(0): absorbancy of the polymer not irradiated (initial color) [1]: 0.08
Maximum absorption wavelength λMax (developed color tone) [1]: 496 nm
Durability T1/2: time until absorbancy at maximum absorption wavelength decreases to 1/2 of the initial [2]: 480 h

C1=CC(c2ccc3ccccc3c2)(c2ccco2)Oc2ccc3ccccc3c21 (centres unmarked) [Compound 4]
Color density ε(120)-ε(0) [1]: 1.10
Color fading rate t1/2: time until absorbancy decreases to one-half of [ε(120)-ε(0)] [1]: 0.983 min
ε(0): absorbancy of the polymer not irradiated (initial color) [1]: 0.07
Maximum absorption wavelength λMax (developed color tone) [1]: 486 nm
Durability T1/2: time until absorbancy at maximum absorption wavelength decreases to 1/2 of the initial [2]: 490 h

C1=CC(c2ccoc2)(c2ccco2)Oc2ccc3ccccc3c21 (centres unmarked) [Compound 5]
Color density ε(120)-ε(0) [1]: 1.11
Color fading rate t1/2: time until absorbancy decreases to one-half of [ε(120)-ε(0)] [1]: 0.833 min
ε(0): absorbancy of the polymer not irradiated (initial color) [1]: 0.07
Maximum absorption wavelength λMax (developed color tone) [1]: 466 nm
Durability T1/2: time until absorbancy at maximum absorption wavelength decreases to 1/2 of the initial [2]: 540 h

C1=CC(c2ccsc2)(c2ccco2)Oc2ccc3ccccc3c21 (centres unmarked) [Compound 6]
Color density ε(120)-ε(0) [1]: 1.02
Color fading rate t1/2: time until absorbancy decreases to one-half of [ε(120)-ε(0)] [1]: 0.75 min
ε(0): absorbancy of the polymer not irradiated (initial color) [1]: 0.07
Maximum absorption wavelength λMax (developed color tone) [1]: 464 nm
Durability T1/2: time until absorbancy at maximum absorption wavelength decreases to 1/2 of the initial [2]: 520 h

Fc1sccc1C1(c2ccc3ccccc3c2)C=Cc2c(ccc3ccccc23)O1 (centres unmarked) [Compound 7]
Color density ε(120)-ε(0) [1]: 1.30
Color fading rate t1/2: time until absorbancy decreases to one-half of [ε(120)-ε(0)] [1]: 1.03 min
ε(0): absorbancy of the polymer not irradiated (initial color) [1]: 0.05
Maximum absorption wavelength λMax (developed color tone) [1]: 456 nm
Durability T1/2: time until absorbancy at maximum absorption wavelength decreases to 1/2 of the initial [2]: 500 h

Cn1cccc1C1(c2ccc3ccccc3c2)C=Cc2c(ccc3ccccc23)O1 (centres unmarked) [Compound 8]
Color density ε(120)-ε(0) [1]: 1.00
Color fading rate t1/2: time until absorbancy decreases to one-half of [ε(120)-ε(0)] [1]: 1 min
ε(0): absorbancy of the polymer not irradiated (initial color) [1]: 0.06
Maximum absorption wavelength λMax (developed color tone) [1]: 486 nm
Durability T1/2: time until absorbancy at maximum absorption wavelength decreases to 1/2 of the initial [2]: 440 h

C1=CC(c2ccsc2)(c2cc3ccccc3o2)Oc2cc(N3CCCCC3)c3ccccc3c21 (centres unmarked) [Compound 10]
Color density ε(120)-ε(0) [1]: 1.33
Color fading rate t1/2: time until absorbancy decreases to one-half of [ε(120)-ε(0)] [1]: 1.37 min
ε(0): absorbancy of the polymer not irradiated (initial color) [1]: 0.10
Maximum absorption wavelength λMax (developed color tone) [1]: 460 nm
Durability T1/2: time until absorbancy at maximum absorption wavelength decreases to 1/2 of the initial [2]: 510 h

COc1ccc2c3c(ccc2c1)OC(c1ccc2ccccc2c1)(c1cnco1)C=C3 (centres unmarked) [Compound 11]
Color density ε(120)-ε(0) [1]: 1.36
Color fading rate t1/2: time until absorbancy decreases to one-half of [ε(120)-ε(0)] [1]: 1.23 min
ε(0): absorbancy of the polymer not irradiated (initial color) [1]: 0.05
Maximum absorption wavelength λMax (developed color tone) [1]: 476 nm
Durability T1/2: time until absorbancy at maximum absorption wavelength decreases to 1/2 of the initial [2]: 490 h

CCOc1c(C2(c3ccco3)C=Cc3c(ccc4cc(OC)c(C(C)=O)cc34)O2)ccc2ccccc12 (centres unmarked) [Compound 12]
Color density ε(120)-ε(0) [1]: 1.34
Color fading rate t1/2: time until absorbancy decreases to one-half of [ε(120)-ε(0)] [1]: 1.1 min
ε(0): absorbancy of the polymer not irradiated (initial color) [1]: 0.08
Maximum absorption wavelength λMax (developed color tone) [1]: 510 nm
Durability T1/2: time until absorbancy at maximum absorption wavelength decreases to 1/2 of the initial [2]: 450 h

C1=CC(c2ncco2)(c2csc3ccccc23)Oc2ccc3cc(Cc4ccccc4)ccc3c21 (centres unmarked) [Compound 13]
Color density ε(120)-ε(0) [1]: 1.02
Color fading rate t1/2: time until absorbancy decreases to one-half of [ε(120)-ε(0)] [1]: 1.03 min
ε(0): absorbancy of the polymer not irradiated (initial color) [1]: 0.07
Maximum absorption wavelength λMax (developed color tone) [1]: 480 nm
Durability T1/2: time until absorbancy at maximum absorption wavelength decreases to 1/2 of the initial [2]: 490 h

COc1ccc2ccc3c(c2c1)C=CC(c1ccco1)(c1coc2ccccc12)O3 (centres unmarked) [Compound 14]
Color density ε(120)-ε(0) [1]: 1.06
Color fading rate t1/2: time until absorbancy decreases to one-half of [ε(120)-ε(0)] [1]: 1 min
ε(0): absorbancy of the polymer not irradiated (initial color) [1]: 0.07
Maximum absorption wavelength λMax (developed color tone) [1]: 484 nm
Durability T1/2: time until absorbancy at maximum absorption wavelength decreases to 1/2 of the initial [2]: 480 h

C1=CC(c2ccc3ccccc3c2)(c2nccs2)Oc2ccc3ccccc3c21 (centres unmarked) [Compound 16]
Color density ε(120)-ε(0) [1]: 1.09
Color fading rate t1/2: time until absorbancy decreases to one-half of [ε(120)-ε(0)] [1]: 0.7 min
ε(0): absorbancy of the polymer not irradiated (initial color) [1]: 0.06
Maximum absorption wavelength λMax (developed color tone) [1]: 466 nm
Durability T1/2: time until absorbancy at maximum absorption wavelength decreases to 1/2 of the initial [2]: 485 h

COc1ccc2c3c(ccc2c1)OC(c1cccs1)(c1cccc2ccccc12)C=C3 (centres unmarked) [Compound 17]
Color density ε(120)-ε(0) [1]: 1.23
Color fading rate t1/2: time until absorbancy decreases to one-half of [ε(120)-ε(0)] [1]: 1.4 min
ε(0): absorbancy of the polymer not irradiated (initial color) [1]: 0.05
Maximum absorption wavelength λMax (developed color tone) [1]: 502 nm
Durability T1/2: time until absorbancy at maximum absorption wavelength decreases to 1/2 of the initial [2]: 470 h

Fc1ccsc1C1(c2ccc3ccccc3c2)C=Cc2c(ccc3ccccc23)O1 (centres unmarked) [Compound 18]
Color density ε(120)-ε(0) [1]: 1.15
Color fading rate t1/2: time until absorbancy decreases to one-half of [ε(120)-ε(0)] [1]: 1.13 min
ε(0): absorbancy of the polymer not irradiated (initial color) [1]: 0.04
Maximum absorption wavelength λMax (developed color tone) [1]: 456 nm
Durability T1/2: time until absorbancy at maximum absorption wavelength decreases to 1/2 of the initial [2]: 505 h

COc1ccc2c3c(ccc2c1)OC(c1cncs1)(c1cscc1C)C=C3 (centres unmarked) [Compound 19]
Color density ε(120)-ε(0) [1]: 1.46
Color fading rate t1/2: time until absorbancy decreases to one-half of [ε(120)-ε(0)] [1]: 1.25 min
ε(0): absorbancy of the polymer not irradiated (initial color) [1]: 0.06
Maximum absorption wavelength λMax (developed color tone) [1]: 490 nm
Durability T1/2: time until absorbancy at maximum absorption wavelength decreases to 1/2 of the initial [2]: 450 h

CC(=O)Oc1ccc2c3c(ccc2c1)OC(c1ccc(C)s1)(c1cccc2ccccc12)C=C3 (centres unmarked) [Compound 20]
Color density ε(120)-ε(0) [1]: 1.42
Color fading rate t1/2: time until absorbancy decreases to one-half of [ε(120)-ε(0)] [1]: 1.48 min
ε(0): absorbancy of the polymer not irradiated (initial color) [1]: 0.05
Maximum absorption wavelength λMax (developed color tone) [1]: 506 nm
Durability T1/2: time until absorbancy at maximum absorption wavelength decreases to 1/2 of the initial [2]: 480 h
